Experimental data as given in patent US9422312B2, “Azabenzimidazole derivatives” (Boehringer Ingelheim International GmbH, priority 2014, dated 2016).

Biological target: Activated AMPK complex 1 (containing alpha1beta1gamma1) (Homo sapiens (Human), UniProt Q13131+Q9Y478)
Test: in vitro AMPK activation assay (ADP-Glo Kinase Assay)
Format: biochemical
Conditions: 1 μM peptide substrate, 30 μM ATP, 60 min, room temperature, luminescence
Description: Activated AMPK complex 1 (containing alpha1beta1gamma1) was obtained from baculovirus expression system. The gene encoding AMPK alpha1 was cloned into the pACG2T vector (BD Biosciences) to obtain a N-terminal Glutathion S transferase (GST)-fusion protein. The genes encoding AMPK beta 1 and gamma1 were cloned into the p2Bac dual multiple cloning site vector (Invitrogen) with beta1 under the control of the p10 promoter and gamma1 under the control of the PH promoter. The transfer vectors containing AMPK were co-transfected individually with AcPNV BacMagic-3 DNA (EMD Millipore) in Sf9 cells and the recombinant baculoviruses were harvested after 5 days, followed by 3 rounds of amplification of the virus stock in Sf9 cells. AMPK (alpha1beta1gamma1) was expressed in High Five 5 cells by co-infection of recombinant alpha1 virus and recombinant beta1/gamma1 virus for 72 h at 27° C. Cells were harvested by centrifugation and lysed by 3 freeze/thaw cycles in PBS with 10% glycerol and protease inhibitor cocktail (Roche). After centrifugation AMPK a1b1g1 in the supernatant was captured by immobilized glutathione (GE Healthcare), impurities were washed away with PBS and AMPK alpha1beta1gamma1 was eluted with PBS containing 20 mM reduced gluthathione. The protein buffer was then exchanged to PBS with 10% glycerol and protein concentration was determined by UV absorbance.
The white 384-well Optiplates (cat. no. 6007299) were purchased from PerkinElmer. The V9101 ADP-Glo Kinase Assay and ultra pure ATP (V915A) was purchased from Promega. The substrate for AMPK (NH2-HMRSAMSGLHLVKRR_CONH2) was purchased from Upstate (12-355).
Compounds were tested in either serial dilutions or single dose concentrations. The serial compound dilutions were prepared in 100% DMSO automatically. The final DMSO concentration in the assay was 0.1%.
The Compound Stock Solutions were 10 mM in 100% DMSO. The compounds were solubilised at room temperature.
In the 384-well plates 1.25 ul of test compound in assay buffer was mixed with 1.25 ul of AMPK and 1.25 μl of the peptide (final concentration of 1 μM) and 1.25 μl of ATP (final concentration of 30 μM), both dissolved in assay buffer. This step was followed by an incubation time of 60 min. Then 5 μl of ADP Glo Reagent was added. This was followed by 40 min of incubation. Then 10 μl of Kinase Detection Reagent was admixed. The plates were sealed and after an incubation period of 30 min, the luminescence signal was measured in an Envision reader. All incubation steps were accomplished at room temperature.
Each assay microtiter plate contained wells with vehicle controls instead of compound (0.1% DMSO in water) as reference for the low signal (100% CTL, low signal), and wells with serial dilutions of AMP (final 30 μM) as reference for high signals.
The luminescence signal generated was proportional to the ADP concentration produced and was correlated with AMPK activity. The analysis of the data was performed by the calculation of the percentage of ATP consumption of AMPK in the presence of the test compound compared to the consumption of ATP in the presence of AMPK without compound. (RLU(sample)/RLU(low control))*100[RLU=relative luminescence units]
An activator of the AMPK enzyme gave values above 100% CTL.
EC50 values based on dose response curves are calculated with the XIFIT software using the 4 Parameter Logistic Model or Sigmoidal Dose-Response Model.

Activated AMPK complex 1 (containing alpha1beta1gamma1), sequence (Q13131 whole entry): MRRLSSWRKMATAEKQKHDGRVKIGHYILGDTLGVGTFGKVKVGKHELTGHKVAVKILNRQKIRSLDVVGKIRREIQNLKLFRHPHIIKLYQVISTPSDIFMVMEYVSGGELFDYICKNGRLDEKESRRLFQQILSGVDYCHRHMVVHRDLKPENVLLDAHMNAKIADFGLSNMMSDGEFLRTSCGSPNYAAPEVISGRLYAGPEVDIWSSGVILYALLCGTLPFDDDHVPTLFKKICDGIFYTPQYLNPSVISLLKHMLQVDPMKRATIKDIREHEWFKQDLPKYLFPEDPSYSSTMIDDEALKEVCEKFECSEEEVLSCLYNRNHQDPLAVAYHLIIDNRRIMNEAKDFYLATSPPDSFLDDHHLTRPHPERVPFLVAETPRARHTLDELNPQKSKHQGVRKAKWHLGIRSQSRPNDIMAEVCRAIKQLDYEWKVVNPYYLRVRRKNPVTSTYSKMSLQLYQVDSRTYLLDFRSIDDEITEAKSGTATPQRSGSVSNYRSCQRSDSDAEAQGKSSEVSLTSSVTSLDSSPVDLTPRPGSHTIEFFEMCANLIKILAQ
Activated AMPK complex 1 (containing alpha1beta1gamma1), sequence (Q9Y478 whole entry): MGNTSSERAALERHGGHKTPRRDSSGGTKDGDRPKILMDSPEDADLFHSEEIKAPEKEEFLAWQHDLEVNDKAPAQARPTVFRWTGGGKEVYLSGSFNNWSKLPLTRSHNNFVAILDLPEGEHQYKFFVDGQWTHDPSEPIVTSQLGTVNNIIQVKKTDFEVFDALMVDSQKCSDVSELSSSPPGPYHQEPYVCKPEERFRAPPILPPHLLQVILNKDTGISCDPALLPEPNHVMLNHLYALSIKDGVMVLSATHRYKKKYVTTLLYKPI
Activated AMPK complex 1 (containing alpha1beta1gamma1), sequence (P54619 whole entry partner): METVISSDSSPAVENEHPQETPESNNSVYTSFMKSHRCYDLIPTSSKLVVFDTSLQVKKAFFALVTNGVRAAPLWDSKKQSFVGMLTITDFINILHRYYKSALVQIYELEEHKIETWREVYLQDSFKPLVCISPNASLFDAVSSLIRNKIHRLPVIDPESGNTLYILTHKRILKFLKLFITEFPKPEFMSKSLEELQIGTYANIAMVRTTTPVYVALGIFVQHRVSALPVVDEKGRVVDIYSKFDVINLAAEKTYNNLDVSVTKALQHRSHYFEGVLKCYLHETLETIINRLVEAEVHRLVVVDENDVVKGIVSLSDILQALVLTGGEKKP

Compound	EC50
CS(=O)(=Nc1ccc(-c2ccc(-c3nc4[nH]c(O[C@@H]5CO[C@H]6[C@@H]5OC[C@H]6O)nc4cc3Cl)cc2)cc1)N1CCCC1 (stereo partly drawn) [Example 6, (3R,3aR,6R,6aR)-6-({6-Chloro-5-[4-(4-{[methyl(oxo)pyrrolidin-1-yl-λ^6-sulfanylidene]-amino}phenyl)phenyl]-3H-imidazo[4,5-b]pyridin-2-yl}oxy)hexahydrofuro[3,2-b]furan-3-ol]	54 nM
CCNS(C)(=O)=Nc1ccc(-c2ccc(-c3nc4[nH]c(O[C@@H]5CO[C@H]6[C@@H]5OC[C@H]6O)nc4cc3Cl)cc2)cc1 (stereo partly drawn) [Example 8, N-{4-[4-(2-{[(3R,3aR,6R,6aR)-6-Hydroxy-hexahydrofuro[3,2-b]furan-3-yl]oxy}-6-chloro-3H-imidazo[4,5-b]pyridin-5-yl)phenyl]phenyl}-N′-ethyl-methanesulfonimidamide]	61 nM
